Laboratory results from ChEMBL document CHEMBL1811905, “Ligand-based discovery of novel trypanosomicidal drug-like compounds: in silico identification and experimental support” (Eur J Med Chem, 2011).

How the values were obtained:
Trypanosoma cruzi [1] = assay: Antitrypanosomal activity against epimastigote forms of Trypanosoma cruzi CL-B5 transfected with Escherichia coli beta-galactosidase gene LacZ at 10 ug/ml after 72 hrs by chlorophenol red-Beta-D-galactopyranoside-based assay; format: functional
J774 [2] = assay: Cytotoxicity against mouse J774 cells assessed as reduction in cell viability at 1 ug/ml after 24 hrs by resazurin-based colorimetric assay; details: j774, 24 h
Trypanosoma cruzi [3] = assay: Antitrypanosomal activity against epimastigote forms of Trypanosoma cruzi CL-B5 transfected with Escherichia coli LacZ gene at 100 ug/ml after 72 hrs by chlorophenol red-Beta-D-galactopyranoside-based assay; format: functional
J774 [4] = assay: Cytotoxicity against mouse J774 cells assessed as reduction in cell viability at 100 ug/ml after 24 hrs by resazurin-based colorimetric assay; details: j774, 24 h
Trypanosoma cruzi [5] = assay: Antitrypanosomal activity against epimastigote forms of Trypanosoma cruzi CL-B5 transfected with Escherichia coli beta-galactosidase gene LacZ at 1 ug/ml after 72 hrs by chlorophenol red-Beta-D-galactopyranoside-based assay; format: functional
J774 [6] = assay: Cytotoxicity against mouse J774 cells assessed as reduction in cell viability at 10 ug/ml after 24 hrs by resazurin-based colorimetric assay; details: j774, 24 h
Trypanosoma cruzi [7] = assay: Antitrypanosomal activity against amastigote forms of Trypanosoma cruzi CL-B5 expressing Escherichia coli LacZ gene infected in NCTC929 fibroblasts at 10 ug/ml after 7 days by chlorophenol red-Beta-D-galactopyranoside-based assay; format: functional
Trypanosoma cruzi [8] = assay: Antitrypanosomal activity against amastigote forms of Trypanosoma cruzi CL-B5 expressing Escherichia coli LacZ gene infected in NCTC929 fibroblasts at 100 ug/ml after 7 days by chlorophenol red-Beta-D-galactopyranoside-based assay; format: functional
Trypanosoma cruzi [9] = assay: Antitrypanosomal activity against amastigote forms of Trypanosoma cruzi CL-B5 expressing Escherichia coli LacZ gene infected in NCTC929 fibroblasts at 1 ug/ml after 7 days by chlorophenol red-Beta-D-galactopyranoside-based assay; format: functional

SMILES: O=C1CN(CCCCCCl)c2ccc([N+](=O)[O-])cc2N1
- Activity (Trypanosoma cruzi [1]): 42.9%
- Activity (J774 [2]): 0%
- Activity (Trypanosoma cruzi [3]): 47.5%
- Activity (J774 [4]): 64.5%
- Activity (Trypanosoma cruzi [5]): 27.7%
- Activity (J774 [6]): 32.3%

SMILES: CN1C(=O)CN(CCc2ccccc2CCl)c2ccc([N+](=O)[O-])cc21
- Activity (Trypanosoma cruzi [1]): 100%
- Activity (J774 [2]): 0%
- Activity (Trypanosoma cruzi [7]): 56.21%
- Activity (Trypanosoma cruzi [8]): 100%
- Activity (Trypanosoma cruzi [3]): 100%
- Activity (J774 [4]): 14.5%
- Activity (Trypanosoma cruzi [5]): 65.5%
- Activity (Trypanosoma cruzi [9]): 35.39%
- Activity (J774 [6]): 0%

SMILES: CCOCc1ccccc1CCN1CC(=O)Nc2cc([N+](=O)[O-])ccc21
- Activity (Trypanosoma cruzi [1]): 74.4%
- Activity (Trypanosoma cruzi [3]): 100%
- Activity (J774 [4]): 95.9%
- Activity (Trypanosoma cruzi [5]): 28.1%
- Activity (J774 [6]): 48.5%

SMILES: CC1CS(=O)(=O)CCN1/N=C/c1ccc([N+](=O)[O-])o1 (stereo not drawn) [NIFURTIMOX]
- Activity (Trypanosoma cruzi [1]): 90%
- Activity (J774 [2]): 0%
- Activity (Trypanosoma cruzi [7]): 94.44%
- Activity (Trypanosoma cruzi [8]): 100%
- Activity (Trypanosoma cruzi [3]): 98.7%
- Activity (J774 [4]): 25.9%
- Activity (Trypanosoma cruzi [5]): 75.5%
- Activity (Trypanosoma cruzi [9]): 88.14%
- Activity (J774 [6]): 0.6%

SMILES: CN1CC(=O)Nc2cc([N+](=O)[O-])ccc21
- Activity (Trypanosoma cruzi [1]): 30.1%
- Activity (Trypanosoma cruzi [3]): 34.5%
- Activity (Trypanosoma cruzi [5]): 17.8%

SMILES: O=C1C[N+]2(CCCCC2)c2ccc([N+](=O)[O-])cc2N1.[Cl-]
- Activity (Trypanosoma cruzi [1]): 34%
- Activity (Trypanosoma cruzi [3]): 26.2%
- Activity (Trypanosoma cruzi [5]): 27.2%

SMILES: O=C1CN(CCc2ccccc2CCl)c2ccc([N+](=O)[O-])cc2N1
- Activity (Trypanosoma cruzi [1]): 96.2%
- Activity (J774 [2]): 4.7%
- Activity (Trypanosoma cruzi [3]): 100%
- Activity (J774 [4]): 76.6%
- Activity (Trypanosoma cruzi [5]): 43.8%
- Activity (J774 [6]): 75.8%

SMILES: CN1C(=O)CN(CCCCCCCl)c2ccc([N+](=O)[O-])cc21
- Activity (Trypanosoma cruzi [1]): 51.2%
- Activity (Trypanosoma cruzi [3]): 100%
- Activity (J774 [4]): 80.7%
- Activity (Trypanosoma cruzi [5]): 25.7%
- Activity (J774 [6]): 63.9%

SMILES: O=C1CN(CCCCCl)c2ccc([N+](=O)[O-])cc2N1
- Activity (Trypanosoma cruzi [1]): 40.8%
- Activity (J774 [2]): 0%
- Activity (Trypanosoma cruzi [3]): 70.5%
- Activity (J774 [4]): 29%
- Activity (Trypanosoma cruzi [5]): 21%
- Activity (J774 [6]): 7.4%

SMILES: CN1C(=O)CN(CCCCCl)c2ccc([N+](=O)[O-])cc21
- Activity (Trypanosoma cruzi [1]): 69.1%
- Activity (Trypanosoma cruzi [7]): 39.33%
- Activity (Trypanosoma cruzi [3]): 99%
- Activity (J774 [4]): 96.8%
- Activity (Trypanosoma cruzi [5]): 19.9%
- Activity (J774 [6]): 0%
